Reference: publication doi:10.1101/2024.03.07.583918v2 (biorxiv, 2024)

Biological target: T1, CheR (Pectobacterium atrosepticum, UniProt Q6D6I8)
T1 sequence (Q6D6I8 1-290): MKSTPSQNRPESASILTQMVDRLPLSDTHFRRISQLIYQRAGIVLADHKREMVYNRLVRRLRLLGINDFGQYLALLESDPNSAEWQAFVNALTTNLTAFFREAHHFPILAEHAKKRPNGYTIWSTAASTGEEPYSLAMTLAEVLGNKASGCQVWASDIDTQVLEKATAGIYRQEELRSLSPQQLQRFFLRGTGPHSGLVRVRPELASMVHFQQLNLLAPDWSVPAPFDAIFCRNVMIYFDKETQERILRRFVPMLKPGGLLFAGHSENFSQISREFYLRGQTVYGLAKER
Assay: isothermal titration calorimetry
Type: binding

SMILES	Kd [µM]
Nc1ncnc2c1ncn2[C@@H]1O[C@H](CSCC[C@H](N)C(=O)O)[C@@H](O)[C@H]1O [SAH]	0.48 ± 0.02
C[S+](CC[C@H](N)C(=O)O)C[C@H]1O[C@@H](n2cnc3c(N)ncnc32)[C@H](O)[C@@H]1O (some centres unmarked) [SAM]	140 ± 20
